Positions of bridges follow the written chain, without caps; N, C: chain ends. Non-standard residues stand in square brackets, D forms with d. No end group written: not given here. formula (I), R19:CH3 = not defined here; formula (I) = not defined here
Assays:
[1] = system: VEGF protein in ARPE-19 human retinal pigment epithelia cells; test: VEGF ELISA of culture supernatant, CoCl2-induced hypoxia vs normoxia, ARPE-19 cells; type: cell-based; settings: for Relative VEGF (Hypoxia/Normoxia) / Relative VEGF (Hipoxia/Normoxia): peptide 20 μM; for Relative VEGF (Hypoxia/Normoxia): 24 hr, 300 μM CoCl2, Table 2, untreated ratio 2.02; for Effect on VEGF expression under hypoxia conditions (in words): compared with untreated cells; for Relative VEGF (Hipoxia/Normoxia): Table 3, untreated ratio 1.87
Method: (§1) MDA-MB-231 human breast cancer cell lines, HaCat immortalized human keratinocyte cell line and ARPE-19 human retinal pigment epithelia (RPE) cell line were purchased from American Type Culture Collection (ATCC, Manassas, VA, USA). Human cells were routinely authenticated using genotype profiling according to the ATCC guidelines. ARPE-19 cells were maintained in DMEM/F12 medium with HEPES supplemented with 10% fetal calf serum and antibiotics.
(§2) A fresh stock solution 0.4 M CoCl2 was prepared in water and added to the medium to obtain the concentration of 50 μM for MDA-MB-231, 200 μM for HaCaT and 300 μM for ARPE-19 cells. Cells were incubated with respective CoCl2 concentration for 24 hr to mimic hypoxic conditions.
The VEGF-content of the supernatant of culture cells was measured by a VEGF-ELISA (Abcam; ab100662; Cambridge, UK) following the manufacturer's instructions. The range of detection of the ELISA was between 8.23 pg/ml and 6,000 pg/ml. […] The same procedure was used in the presence of the peptides of the invention.
(§3) RT-PCR experiments were repeated at least 2 times. For VEGF assays, the mean±S.D of 3 determinations carried out in triplicate were calculated. Statistical significance was determined using Mann-Whitney tests for comparisons of means in a SPPS statistical software for Microsoft Windows, release 6.0 (Professional Statistic, Chicago, IL, USA). Individual comparisons were made using Student's two-tailed, unpaired t-tests. Criterion for significance was P<0.05 for all comparisons.
The objective of this study was to determine the regulation of VEGF by the peptides in hypoxia induced conditions in ARPE-19 cell lines. The VEGF protein (using ELISA kit) was calculated in untreated cells in hypoxia vs. normoxia and a threshold of activity was set. Then, cells were treated with a solution of the corresponding peptide of the invention at 20 μM dissolved in cell culture medium alone (normoxia condition) or in the presence of CoCl2 (hypoxia conditions) and the ratio of VEGF protein amount was calculated. The peptides showing a VEGFhyp/VEGFnorm ratio higher than the ratio in untreated cells were considered as inducers of VEGF protein, while peptides providing a VEGFhyp/VEGFnorm ratio lower than the ratio in untreated cells were considered as reducers of VEGF protein, as reported in table 2.

[2] = system: VEGF protein in HaCat immortalized human keratinocyte cells; test: VEGF ELISA of culture supernatant, CoCl2-induced hypoxia vs normoxia, HaCat cells; type: cell-based; settings: peptide 10 μM, untreated ratio 1.15
Text: as §1
(§4) MDA-MB-231 and HaCaT were maintained in DMEM medium with glucose 4.5gr/L, glutamine and pyruvate 2 mM and supplemented with 10% fetal calf serum and antibiotics.
as §2
(§5) The VEGF-content of the supernatant of culture cells was measured by a VEGF-ELISA (Abcam; ab100662; Cambridge, UK) following the manufacturer's instructions. […]
as §3, with “Individual comparisons were made using Student's two-tailed, unpaired t-tests. Criterion for significance was P<0.05 for all comparisons.” left out

[3] = system: VEGF protein in MDA-MB-231 human breast cancer cells; test: VEGF ELISA of culture supernatant, CoCl2-induced hypoxia vs normoxia, MDA-MB-231 cells; type: cell-based; settings: peptide 10 μM, untreated ratio 1.72
Text: as §1, §4, §2, §5
as §3, with “Individual comparisons were made using Student's two-tailed, unpaired t-tests. Criterion for significance was P<0.05 for all comparisons.” left out

[4] = system: VEGF mRNA in ARPE-19 cells; test: Real time quantitative RT-PCR of VEGF mRNA in ARPE-19 cells; type: cell-based, human; settings: for VEGF mRNA level compared to untreated cells (in words): ARPE-19, 10 μM; for Relative Copy to Control / VEGF mRNA Copy/Copy million of Actine: ARPE-19, peptide 10 μM, 24 hr; for Relative Copy to Control: control = untreated normoxia (1)
Method: as §2
Extraction of RNA from indicated cells was performed using the NZY total RNA isolation kit (Nzytech, Lisboa, Portugal) and cDNA prepared using the NZY First-Strand cDNA Synthesis Kit (Nzytech). Primers were designed using Primer Blast software (NCBI) and obtained from Thermo-Fisher. mRNA expression levels were evaluated by qRT-PCR (QuantStudio 5 Real-Time PCR System, Applied Biosystems, Foster City, CA, USA) using SYBR green master mix (Applied Biosystems) and normalized to […]. The following primers were used in this study: β-Actin (forward: 5″-AGAAAATCTGGCACCACACC-3″ (SEQ ID NO: 32); reverse: 5″-GGGGTGTTGAAGGTCTCAAA-3″ (SEQ ID NO: 33)); VGFA (forward: 5″-TACTGCCATCCAATCGAGAC-3″ (SEQ ID NO: 34); reverse: 5″-GCA TGG TGA TGT TGG ACT-3″ (SEQ ID NO: 35)).
as §3
The VEGF expression regulation was also determined by […] in ARPE-19 cells treated with the peptide SEQ ID NO: 17 at 10 μM for 24 hr in normoxia and hypoxia conditions.

[5] = system: CD31 staining (blood vessels) in MDA-MB-231 tumours; test: Angiogenesis reduction in vivo: CD31 immunohistochemistry of MDA-MB-231 breast tumour xenografts; settings: MDA-MB-231 xenograft in athymic mice, s.c. 2x week, vs vehicle
Method: MDA-MB-231 cells were inoculated (2.5×10^6 cells/animal) in 100 μl of DMEM into the mammary fat pad of athymic mice. When tumours reached a volume of 100 mm3, animals were divided in groups and treated 2× week by s.c. administration with vehicle (2% Tween-20 in 0.9% NaCl sterile, control group) and 2× week by s.c. administration with SEQ ID NO:17 (treated group). At sacrifice, tumours were collected, weighed and formalin-fixed (24 h). Formalin-fixed tumours were processed for paraffin-embedded tissue blocks, which were sent for analysis to the Dept. Bioquimica y Biologic Molecular A, Facultad de Veterinaria, Universidad de Murcia.
Hematoxylin, eosin, diaminobenzidine tetrahydrochloride and hydrogen peroxide were obtained from Merck (Madrid, Spain). The antibody mouse monoclonal anti-CD31 was obtained from Novus.
Tumours washed in PBS, fixed in 10% formalin and embedded in paraffin.
Haematoxylin and eosin (H&E) staining was performed on serial sections of paraffin embedded tissues. For immunohistochemistry, paraffin sections were deparaffinized and subjected to antigen retrieval in sodium citrate buffer (pH 6.0). Tissue endogenous peroxidase was inactivated with 5% hydrogen peroxide. Slides were blocked and incubated with primary antibodies overnight at 4 C. […] The stained slides were scanned using a SCN400F Leica scanner and images were analysed using ImageJ software.

SEQ ID NO: 30: peptide of the second aspect with linker biradical, derived from SEQ ID NO: 22 (RSRRSKESE[formula (I)]FYELAH[formula (I)]-NH2; staple 10-17; reading uncertain; also: staple: ‑(CH2)6‑CH:CH‑(CH2)3‑)
Relative VEGF (Hypoxia/Normoxia) [1]: 2.70

SEQ ID NO: 16: cross-linked (stapled) peptide derived from SEQ ID NO: 1 (KASVM[formula (I), R19:CH3]LTISYL[formula (I), R19:CH3]VR-NH2; staple 6-13; reading uncertain; also: staple: ‑(CH2)6‑CH:CH‑(CH2)3‑)
Relative VEGF (Hypoxia/Normoxia) [1]: 1.01 | Relative VEGF (Hypoxia/Normoxia) [2]: 0.88 | Relative VEGF (Hypoxia/Normoxia) [3]: 1.30

SEQ ID NO: 20: cross-linked (stapled) peptide derived from SEQ ID NO: 1 (LDKASV[formula (I), R19:CH3]RLTISY[formula (I), R19:CH3]RVRK-NH2; staple 7-14; reading uncertain; also: staple: ‑(CH2)6‑CH:CH‑(CH2)3‑)
Relative VEGF (Hypoxia/Normoxia) [1]: 0.99

SEQ ID NO: 29: peptide of the second aspect with linker biradical, derived from SEQ ID NO: 22 (RSRRSKE[formula (I), R19:CH3]EVFYEL[formula (I), R19:CH3]HQ-NH2; staple 8-15; reading uncertain; also: staple: ‑(CH2)6‑CH:CH‑(CH2)3‑)
Relative VEGF (Hypoxia/Normoxia) [1]: 2.60

LDKASVMRLTISYLRVRK [SEQ ID NO: 13, lineal peptide, 18 amino acids]
Effect on VEGF expression under hypoxia conditions (in words) [1]: increase VEGF expression under hypoxia conditions | Relative VEGF (Hypoxia/Normoxia) [1]: 2.59

SEQ ID NO: 17: cross-linked (stapled) peptide; differs from SEQ ID NO: 16 only in the C-terminal end (KASVM[formula (I), R19:CH3]LTISYL[formula (I), R19:CH3]VR-OH; staple 6-13; reading uncertain; also: staple: ‑(CH2)6‑CH:CH‑(CH2)3‑)
Relative VEGF (Hypoxia/Normoxia) [1]: 1.02 | VEGF mRNA level compared to untreated cells (in words) ([4]; hypoxia): reduced significantly the mRNA level | VEGF mRNA level compared to untreated cells (in words) ([4]; normoxia): just a slide reduction | Relative Copy to Control ([4]; hypoxia, untreated hypoxia 4.50): 0.76 | VEGF mRNA Copy/Copy million of Actine ([4]; hypoxia, untreated hypoxia 152782): 25873 Copy/Copy million of Actine | Relative Copy to Control ([4]; normoxia): 0.93 | VEGF mRNA Copy/Copy million of Actine ([4]; normoxia, untreated normoxia 33918): 31454 Copy/Copy million of Actine | CD31 expression in treated tumours compared with the control (immunohistochemistry) [5]: statistically significant decrease of CD31 expression

SEQ ID NO: 31: peptide of the second aspect with linker biradical, derived from SEQ ID NO: 22 (RS[formula (I)]RSKESE[formula (I)]FYELAHQLP-NH2; staple 3-10; reading uncertain; also: staple: ‑(CH2)6‑CH:CH‑(CH2)3‑)
Relative VEGF (Hypoxia/Normoxia) [1]: 2.64

SEQ ID NO: 19: cross-linked (stapled) peptide derived from SEQ ID NO: 1 (LDKA[formula (I), R19:CH3]VMRLTI[formula (I), R19:CH3]YLRVRK-NH2; staple 5-12; reading uncertain; also: staple: ‑(CH2)6‑CH:CH‑(CH2)3‑)
Relative VEGF (Hypoxia/Normoxia) [1]: 1.39

SEQ ID NO: 14: cross-linked (stapled) peptide derived from SEQ ID NO: 1 (KA[formula (I), R19:CH3]VMRLTI[formula (I), R19:CH3]YLRVR-NH2; staple 3-10; reading uncertain; also: staple: ‑(CH2)6‑CH:CH‑(CH2)3‑)
Relative VEGF (Hypoxia/Normoxia) [1]: 1.41

SEQ ID NO: 21: cross-linked (stapled) peptide derived from SEQ ID NO: 1 (LDKASVM[formula (I), R19:CH3]LTISYL[formula (I), R19:CH3]VRK-NH2; staple 8-15; reading uncertain; also: staple: ‑(CH2)6‑CH:CH‑(CH2)3‑)
Relative VEGF (Hypoxia/Normoxia) [1]: 1.36

KASVMRLTISYLRV [SEQ ID NO: 37, 14 amino acid lineal peptide]
Relative VEGF (Hipoxia/Normoxia) [1]: 2.02

KASVMRLTISYLRVR [SEQ ID NO: 36, 15 amino acid lineal peptide disclosed in WO2006038208(A2), reference compound]
Effect on VEGF expression under hypoxia conditions (in words) [1]: no effect in the modulation of VEGF expression | Relative VEGF (Hipoxia/Normoxia) [1]: 1.89
